{
  "source": "patent US4374149A",
  "about": "“α-{[(Arylalkyl)amino]alkyl}-4-hydroxy-3-(lower-alkylsul finyl)benzenemethanols” (Sterling Drug Inc., priority 1978, dated 1983)",
  "key": {"systolic blood pressure": {"test_system": "systolic blood pressure", "test": "Antihypertensive activity, reduction in systolic blood pressure, single oral medication, unanesthetized spontaneous hypertensive rat", "assay_type": "in vivo", "settings": "P.O., single dose, unanesthetized SH rat", "method": "Antihypertensive activity was determined on the basis of the observed reduction in systolic blood pressure measured according to the method of H. Kersten et al., J. Lab. and Clin. Med. 32, 1090 (1947) following a single oral medication in the unanesthetized spontaneous hypertensive rat described by Okamato et al., Japan Circulation J. 27, 282 (1963).\n^a AHD40 = single oral dose required to induce a 40 mm. average"}, "blood pressure": {"test_system": "blood pressure", "test": "Antihypertensive activity, sustained lowering of blood pressure, repeated oral medication, unanesthetized trained renal hypertensive dog", "assay_type": "in vivo", "from_the_text": "Antihypertensive activity was also judged on the basis of sustained reduction of blood pressure observed in the unanesthetized trained renal hypertensive dog following repeated oral medication according to the procedure described by Lape et al., Arch.\n^b MED10 = minimum repeated oral daily dose required to effect a"}, "β-adrenergic": {"test_system": "β-adrenergic", "test": "β-adrenergic blocking activity, inhibition of isoproterenol-elicited heart rate increase in pentobarbitalized dog", "assay_type": "in vivo", "settings": "i.v.", "method": "The β-adrenergic blocking activity was determined in the pentobarbitalized dog as judged by the ability of the test compound to inhibit the elevation in heart rate elicited by a 0.5 mcg./kg. i.v. injection of isoproterenol.\n^e AED50 = approximate intravenous dose required to cause 50%"}, "isolated cat atria": {"test_system": "isolated cat atria", "test": "Cardiotonic test procedure I, isolated cat atria", "settings": "for Increase in right atrial force / Increase in right atrial rate: in vitro", "description": "The efficacy of this compound was judged, in vitro, on the basis of percent increase in contractile force in isolated cat atria and papillary muscle and, in vitro, on the basis of percent increase in cardiac contractile force in the intact anesthetized dog. Male cats weighing from 0.8 to 1.5 kg. were anesthetized with α-chloralose (80 mg./kg. i.p.). The chest was opened, the heart excised and the two atria dissected. A silk suture was tied to each of two opposite sides of the right atrium. One side of the atrium was tied to a glass rod and then mounted in a 50 ml. organ bath filled with Tyrode's solution. […] The transducer was then connected to a Grass polygraph and the force and rate of atrial contraction was recorded continuously. The left atrium was treated similarly using silver wire instead of silk sutures. The silver wire also served as a stimulating electrode. Both atria were mounted in the same bath. The right atrium was beating spontaneously due to the presence of the sinoatrial node, while the left atrium was stimulated electrically at a rate of 3 beats/sec. by suprathreshold rectangular pulses of 5 millisecond duration. The Tyrode's solution bathing the atria was of the following composition (in mM): NaCl 136.87, KCl 5.36, NaH2 PO4 0.41, CaCl2 1.80, MgCl2 6H2 O 1.05, NaHCO3 11.90, glucose 5.55 and EDTA 0.04. […] The preparation was left to equilibrate for one hour before any drug was added. The bathing fluid was changed 3 to 4 times during the equilibration time. At the end of equilibration period, the drug dissolved in a vehicle or the vehicle alone was added to the tissue bath and the full response recorded. The vehicle used was Tyrode' s solution to which, if required, sufficient acid was added to cause solution of the drug. […] Generally, a dose response study of at least 3 doses was done in the same preparation."}, "papillary muscle": {"test_system": "papillary muscle", "test": "Cardiotonic test procedure IB, isolated cat papillary muscle", "settings": "in vitro", "description": "The efficacy of this compound was judged, in vitro, on the basis of percent increase in contractile force in isolated cat atria and papillary muscle and, in vitro, on the basis of percent increase in cardiac contractile force in the intact anesthetized dog. Male cats 0.8 to 1.5 kg. were anethetized with α-chloralose (80 mg./kg. i.p.). The chest was opened and the heart excised. The heart was dipped and shaken in Tyrode's solution for the removal of blood from the cavities. The right ventricle was then slit open and the small and thin (about 1 mm. in diameter and 4 to 7 mm. in length) papillary muscles were dissected out. A silver wire was attached to each of the two ends of the papillary muscle. The ventricular end was attached to a platinum electrode and mounted in a tissue bath containing Tyrode's solution described above. The silver wire on the valvular end of the muscle was attached to a force displacement transducer for the measurement of the force and rate of muscle contraction. The muscle was stimulated at a rate of 3 beats/sec. by suprathreshold rectangular pulses of 5 millisecond duration. The rest of the procedure was continued as described above."}, "[1]": {"test_system": "cardiac contractile force", "test": "Cardiotonic test procedure II, intact anesthetized dog", "assay_type": "in vivo, mongrel dogs", "description": "The efficacy of this compound was judged, in vitro, on the basis of percent increase in contractile force in isolated cat atria and papillary muscle and, in vitro, on the basis of percent increase in cardiac contractile force in the intact anesthetized dog. The in vivo test procedure used is described as follows: Mongrel dogs of both sexes and varying in weight from 9 to 15 kg. were anesthetized with 30 mg./kg. pentobarbital sodium administered intravenously. The trachea was exposed and cannulated. The tracheal cannula was then attached to a Harvard respiratory pump using room air. The right femoral artery and vein were cannulated. […] The venous cannula was used for the intravenous administration of drugs. Pin electrodes were attached to the right forelimb and left hindlimb. The electrodes were then connected to a Grass polygraph for the continuous recording of the standard limb lead II electrocardiogram. A ventro-dorsal incision at the third inter-costal space was made, the ribs laterally retracted and the pericardium slit open to expose the myocardium. The base of the aorta was dissected and a flow probe was fitted around it. The flow probe was attached to a square wave electromagnetic flowmeter (Carolina Medical Electronics). The flowmeter was then connected to a Grass polygraph for the continuous recording of aortic blood flow. This flow was used as an index of cardiac output (actual cardiac output is aortic blood flow+coronary blood flow). Cardiac contractile force was measured by suturing a Walton-Brodie strain gauge to the wall of the right ventricle. At the end of the surgical procedure, the animal was left to rest and equilibrate for one hour with continuous recording of blood pressure, EKG, cardiac contractile force and aortic blood flow. After the equilibration period, the vehicle or the drug dissolved in the vehicle was administered by intravenous infusion (i.v. inf.), intravenous bolus (i.v. bol.) or intraduodenally (i.d.) and the response of all the parameters measured to drug administration was recorded continuously for different periods of times depending on the route of drug administration. When the route of administration was i.v. inf., the drug was administered until a peak effect was reached and infusion was then maintained for ten minutes. The above-described test systems were standardized using dopamine."}, "arrhythmia": {"test_system": "arrhythmia", "test": "Antiarrhythmic activity (in words, test not specified)", "settings": "in vivo", "description": "The test procedures were carried out as follows."}},
  "data": [
    {"smiles": "COc1ccc(CCC(C)NCC(=O)c2ccc(O)c([S+](C)[O-])c2)cc1.Cl", "note": "(stereo not shown) [Example 26B, 4'-hydroxy-2-[3-(4-methoxyphenyl)-1-methylpropyl]amino-3'-(methylsulfinyl)-acetophenone hydrochloride]", "values": [
      {"measurement": "Antihypertensive activity SH Rat AHD40 (single oral dose required to induce a 40 mm. average reduction in systolic blood pressure)", "setting": "systolic blood pressure", "result": "ca. 40.0 mg./kg."},
      {"measurement": "Renal Hypertensive Dog MED10 (minimum repeated oral daily dose for sustained lowering of blood pressure of 10% or greater)", "setting": "blood pressure; administered once per day", "result": "> 20", "unit": "mg/kg"},
      {"measurement": "Actual percentage reduction in blood pressure observed at the indicated dose", "setting": "blood pressure; once per day, 20 mg./kg.", "result": 0},
      {"measurement": "Actual percentage inhibition of heart rate increase above control level observed at the indicated dose", "setting": "β-adrenergic; 1.0 mg./kg.", "result": 18, "unit": "%"},
      {"measurement": "Dog β-blockade AED50 (approximate intravenous dose for 50% inhibition of isoproterenol-elicited heart rate increase)", "setting": "β-adrenergic; pentobarbitalized dog", "result": "> 1.0", "unit": "mg/kg"},
      {"measurement": "Increase in right atrial force", "setting": "isolated cat atria; 10 /ml.", "result": 1, "unit": "%"},
      {"measurement": "Increase in right atrial rate", "setting": "isolated cat atria; 10 /ml.", "result": 0, "unit": "%"},
      {"measurement": "Increase in right atrial force", "setting": "isolated cat atria; 30 /ml.", "result": 5, "unit": "%"},
      {"measurement": "Increase in right atrial rate", "setting": "isolated cat atria; 30 /ml.", "result": 3, "unit": "%"},
      {"measurement": "Increase in right atrial force", "setting": "isolated cat atria; 100 /ml.", "result": 6, "unit": "%"},
      {"measurement": "Increase in right atrial rate", "setting": "isolated cat atria; 100 /ml.", "result": 8, "unit": "%"},
      {"measurement": "Cardiotonic activity (in words)", "setting": "isolated cat atria; one or more of the cardiotonic test procedures", "result": "cardiotonic activity"},
      {"measurement": "Increase in papillary muscle force", "setting": "papillary muscle; 10 /ml.", "result": 7, "unit": "%"},
      {"measurement": "Increase in papillary muscle force", "setting": "papillary muscle; 30 /ml.", "result": 23, "unit": "%"},
      {"measurement": "Increase in papillary muscle force", "setting": "papillary muscle; 100 /ml.", "result": 38, "unit": "%"},
      {"measurement": "Increase in cardiac contractile force", "setting": "[1]; 1.0 mg./kg., first series", "result": 22, "unit": "%"},
      {"measurement": "Increase in cardiac contractile force", "setting": "[1]; 1.0 mg./kg., second, similar series", "result": 4, "unit": "%"},
      {"measurement": "Increase in cardiac contractile force", "setting": "[1]; 3.0 mg./kg., first series", "result": 25, "unit": "%"},
      {"measurement": "Increase in cardiac contractile force", "setting": "[1]; 3.0 mg./kg., second, similar series", "result": 12, "unit": "%"},
      {"measurement": "Increase in cardiac contractile force", "setting": "[1]; 10.0 mg./kg., first series", "result": 59, "unit": "%"},
      {"measurement": "Increase in cardiac contractile force", "setting": "[1]; 10.0 mg./kg., second, similar series", "result": 50, "unit": "%"},
      {"measurement": "Antiarrhythmic activity (in words)", "setting": "arrhythmia", "result": "antiarrhythmic activity"}
    ]}
  ]
}
